Data set [1] in a line: Transmission electron microscopy of peptide fibrils. In kind it is physicochemical. To be noted: amyloid-like fibrils after 5 days at room temperature. From the text:
(§1) In the interest of improving the current description of the familiar amyloidogenic protein dataset, we selected and synthesised a subset of 96 peptides corresponding to strong aggregation prone regions identified in these proteins by Cordax. Apart of prediction strength, the peptide screen was also selectively constructed to ensure broad sequence variability and a wide distribution on the proteins of the dataset, with a preference for longer entries defined by inadequate previous characterisation. Peptide sequences were cross-checked and filtered to exclude overlapping sequences with previously identified amyloid regions and WALTZ-DB (see Table 2). The remaining selection of 96 peptides were synthesized using standard solid phase synthesis and their amyloid-forming properties were initially examined using Thioflavin-T (Th-T) or pFTAA binding, following rotating incubation for 5 days at room temperature. The binding assays are complementary, as Th-T and pFTAA are opposingly charged molecules, which increases the amyloid identification rate by overcoming cases of dye-specific failure to bind to amyloid surfaces based on charge repulsion. Under these conditions, 66 peptides successfully bind the specific dyes (FIGS. 3a & 3b) by forming fibrils with typical amyloid morphologies and properties that were verified using transmission electron microscopy (FIG. 3c) and Congo red staining for selected cases (FIG. 3d). As these dyes are known to yield false negatives, in particular for short peptides, all dye-negative peptides were further investigated using electron microscopy. During this scan, we recovered 19 additional sequences that were capable of forming sparse amyloid-like fibrils with shorter lengths (see FIG. 8).
(§2) Peptide solutions were incubated for 5 days at room temperature in order to form mature amyloid-like fibrils. Suspensions (5 μL) of each peptide solution were added on 400-mesh carbon-coated copper grids (Agar Scientific Ltd., England), following a glow-discharging step of 30 s to improve sample adsorption. Grids were washed with milli-Q water and negatively stained using uranyl acetate (2% w/v in milli-Q water). Grids were examined with a JEM-1400 120 kV transmission electron microscope (JEOL, Japan), operated at […].

Data set [2] can be described thus: Amyloid-forming properties of the peptide screen (overall call from Th-T, pFTAA, TEM). In kind it is physicochemical. To be noted: overall amyloid-forming call.
Text: as §1, with “8). […]” for “8).”
(§3) Peptides derived from the Cordax validation set were synthesized using an Intavis Multipep RSi solid phase peptide synthesis robot. Peptide purity (>90%) was evaluated using RP-HPLC purification protocols and peptides were stored as ether precipitates (−20° C.). Peptide stocks were initially treated with 1,1,1,3,3,3-hexafluoro-isopropanol (HFIP) (Merck), then dissolved in traces of dimethyl sulfoxide (DMSO) (Merck) (<5%), filtered through 0.2 μm filters and finally in milli-Q water to reach a final concentration of 200 μM or up to 1 mM for dye-negative peptides. Dithiothreitol (DTT) (1 mM) was included in solutions of peptides spanning cysteine or methionine residues. All peptides were incubated at room temperature for a period of 5 days on a rotating wheel.
(§4) Amyloid aggregation was monitored using fluorescent spectroscopy binding assays. Th-T (Sigma) or pFTAA (Ebba Biotech AB) was added in half-area black 96-well microplates (Corning, USA) at a final concentration of 25 μM and 0.5 μM, respectively. Fluorescence intensity was measured in replicates (n=6) using a PolarStar Optima and a FluoStar Omega plate reader (BMG Labtech, Germany), equipped with an excitation filter at 440 nm and emission filters at 480 nm and 510 nm, respectively.
as §2

Data set [3] is described as follows: Thioflavin-T binding assay of synthetic peptides. In kind it is physicochemical. To be noted: 200 μM peptide, rotation 5 days, room temperature; Th-T 25 μM.
Text: as §1, §3, §4

Data set [4] in a line: pFTAA binding assay of synthetic peptides. In kind it is physicochemical. Particulars: 200 μM peptide, rotation 5 days, room temperature; pFTAA 0.5 μM.
Text: as §1, §3, §4

The next data set deals with T1, Apo-AI (Homo sapiens, UniProt P02647).
T1 construct: Endpoint fluorescence analysis; made in house; host or cells: solid phase peptide synthesis (no expression host)
Kind of data set: Th-T kinetics and endpoint fluorescence analysis of ApoA-I APR variant peptides. In kind it is biochemical. To be noted: triplicate. On the procedure: The Th-T kinetics (see FIGS. 12A and 12B) and the endpoint fluorescence analysis (see FIG. 11) were performed in triplicate for the peptides depicted in Table 5.
The Th-T kinetics (see FIGS. 13A and 13B) and the endpoint fluorescence analysis (see FIG. 11) were performed in triplicate for the peptides depicted in Table 6.
as §4

Take AAYLWV: the TEM result in data set [1] is given as “●”. In data set [2], the Amyloid entry is listed as “●”. Besides, the “Th-T Binding” value in data set [3] is reported as “●”. Moreover, in data set [4], the “pFTAA Binding” value is on record as “●”.

For AEIEIE, the TEM result in data set [1] is on record as “●”. In data set [2], the Amyloid result is given as “●”. For the same substance, the “Th-T Binding” value in data set [3] is reported as “●”. Moreover, the “pFTAA Binding” value in data set [4] is recorded as “●”.

ASLTIL: in data set [1], the TEM result is on record as “●”. In data set [2], the Amyloid result is “●”. Moreover, the “Th-T Binding” value in data set [3] is “●”. Also, in data set [4], the “pFTAA Binding” value is “●”.

Regarding FVIEEV, in data set [1], the TEM result is “●”. The Amyloid result in data set [2] was “●”. Moreover, the “Th-T Binding” value in data set [3] is “●”. Moreover, the “pFTAA Binding” value in data set [4] is recorded as “●”.

IFTVQL: the TEM result in data set [1] is “●”. For the same substance, the Amyloid entry in data set [2] is listed as “●”. Moreover, in data set [3], the “Th-T Binding” value was “●”. The “pFTAA Binding” value in data set [4] is given as “●”.

Regarding IIYNWQ, in data set [1], the TEM result is recorded as “●”. Further, in data set [2], the Amyloid entry is “●”. Besides, the “Th-T Binding” value in data set [3] is on record as “●”. In addition, the “pFTAA Binding” value in data set [4] is “●”.

For the substance ILLLFE, in data set [1], the TEM entry is listed as “●”. For the same substance, in data set [2], the Amyloid entry was “●”. The “Th-T Binding” value in data set [3] was “●”. For the same substance, the “pFTAA Binding” value in data set [4] is recorded as “●”.

As for IQVYSR, the TEM result in data set [1] is “●”. Also, the Amyloid entry in data set [2] was “●”. The “Th-T Binding” value in data set [3] is reported as “●”. Further, the “pFTAA Binding” value in data set [4] is “●”.

Take “LAIVYV (Aggregation inducer) [SEQ ID NO: 182, candidate aggregation inducing variant of ApoA-I APR]”: the “induce the aggregation of Apo-AI” value with Apo-AI is on record as “most performant peptides which can induce the aggregation of Apo-AI”.

As to “LLTVYV (Aggregation inducer) [SEQ ID NO: 178, candidate aggregation inducing variant of ApoA-I APR]”, the “induce the aggregation of Apo-AI” value with Apo-AI was “most performant peptides which can induce the aggregation of Apo-AI”.

Take “LWTVYV (Capping peptide) [SEQ ID NO: 175, candidate capping peptide variant of ApoA-I APR]”: the “capping peptide: prevent the aggregation of Apo-AI” value in the data set with Apo-AI was “most performant capping peptides”.

Take “LYTVYV (Capping peptide) [SEQ ID NO: 176, candidate capping peptide variant of ApoA-I APR]”: the “capping peptide: prevent the aggregation of Apo-AI” value with Apo-AI was “most performant capping peptides”.

Take NDAFVL: in data set [1], the TEM result was “●”. In data set [2], the Amyloid result is “●”. In addition, the “Th-T Binding” value in data set [3] is reported as “●”. Further, the “pFTAA Binding” value in data set [4] is recorded as “●”.

Turning to NFSIRY, the TEM entry in data set [1] is “●”. In addition, the Amyloid result in data set [2] is reported as “●”. Also, the “Th-T Binding” value in data set [3] is “●”. Also, in data set [4], the “pFTAA Binding” value is recorded as “●”.

Consider QVFVWV, for which the TEM result in data set [1] is given as “●”. The Amyloid result in data set [2] was “●”. For the same substance, the “Th-T Binding” value in data set [3] is given as “●”. Besides, the “pFTAA Binding” value in data set [4] is recorded as “●”.

As to SQFIKL, the TEM result in data set [1] is reported as “●”. Further, the Amyloid result in data set [2] is given as “●”.

With STVISY, the TEM entry in data set [1] is recorded as “●”. Moreover, the Amyloid result in data set [2] is listed as “●”. In addition, in data set [3], the “Th-T Binding” value is given as “●”. For the same substance, in data set [4], the “pFTAA Binding” value is reported as “●”.

On to TLFTMD, for which, in data set [1], the TEM result was “●”. Further, the Amyloid result in data set [2] is listed as “●”.

With VHIVKL, the TEM result in data set [1] is recorded as “●”. Moreover, the Amyloid result in data set [2] is recorded as “●”. In addition, in data set [4], the “pFTAA Binding” value is listed as “●”.

For the substance VNFSEF, the TEM result in data set [1] was “●”. Moreover, the Amyloid entry in data set [2] was “●”. Further, the “Th-T Binding” value in data set [3] is reported as “●”. Further, in data set [4], the “pFTAA Binding” value is “●”.

In the case of VYVDVL, the TEM entry in data set [1] was “●”. Besides, the Amyloid entry in data set [2] was “●”. Besides, the “Th-T Binding” value in data set [3] is given as “●”. The “pFTAA Binding” value in data set [4] is on record as “●”.

As for YDLHYW, in data set [1], the TEM result is reported as “●”. The Amyloid entry in data set [2] is recorded as “●”. Also, the “Th-T Binding” value in data set [3] was “●”. In addition, in data set [4], the “pFTAA Binding” value is listed as “●”.

As for YFHARG, the TEM entry in data set [1] is “●”. In addition, in data set [2], the Amyloid entry was “●”.

YIILYN: in data set [1], the TEM entry was “●”. Also, the Amyloid entry in data set [2] is reported as “●”. For the same substance, in data set [3], the “Th-T Binding” value is “●”. In data set [4], the “pFTAA Binding” value is given as “●”.

Regarding YQLVLQ, the TEM entry in data set [1] was “●”. For the same substance, the Amyloid result in data set [2] is “●”. The “Th-T Binding” value in data set [3] was “●”. Moreover, the “pFTAA Binding” value in data set [4] is “●”.

The record behind these values is patent US20230245725A1, “Means and Methods for the Prediction of Amyloid Core Sequences” (VIB VZW, priority 2020, published 2023).
